According to patent US7297551B2, “Recombinant proteins and peptides for endotoxin biosensors, endotoxin removal, and anti-microbial and anti-endotoxin therapeutics” (priority 1998, dated 2007):

How the values were obtained:
[1] = biological target: T1, SSCrFCES (LPS-binding domain of C. rotundicauda Factor C, rFCES amino acids 29-330, numbered as in SEQ ID NO: 4) (Carcinoscorpius rotundicauda, UniProt Q26422); assay: ELISA-based lipid A binding assay
T1 construct: rFCES (amino acids 29-330); made in house; host or cells: Drosophila S2 cells
T1 sequence (Q26422 29-330): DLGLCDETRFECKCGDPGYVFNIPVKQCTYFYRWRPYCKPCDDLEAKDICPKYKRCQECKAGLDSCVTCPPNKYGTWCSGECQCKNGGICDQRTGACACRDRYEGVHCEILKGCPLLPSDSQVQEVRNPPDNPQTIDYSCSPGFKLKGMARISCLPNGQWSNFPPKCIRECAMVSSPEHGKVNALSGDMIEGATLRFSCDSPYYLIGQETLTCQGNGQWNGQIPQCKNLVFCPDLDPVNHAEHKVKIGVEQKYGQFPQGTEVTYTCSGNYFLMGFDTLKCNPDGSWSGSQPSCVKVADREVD
Experimental: A Polysorp™ 96-well plate (Nunc) was first coated with 100 μl per well of various concentrations of lipid A diluted in pyrogen-free PBS. The plate was sealed and allowed to incubate overnight at room temperature. The wells were aspirated and washed 6 times with 200 μl per wash solution (PBS containing 0.01% Tween-20 and 0.01% thimerosal). Blocking of unoccupied sites was achieved using wash solution containing 0.2% BSA for 1 hour at room temperature. Subsequently, blocking solution was removed and the wells washed as described above. Varying concentrations of SSCrFCES were allowed to interact with bound lipid A at room temperature for 2 hours.
Bound SSCrFCES was detected by sequential incubation with rabbit anti-SSCrFCES antibody (1:1000 dilution) and goat anti-rabbit antibody conjugated with HRP (1:2000 dilution) (Dako). Incubation with each antibody was for 1 h at 37° C. with washing between incubations as described above. In the final step, 100 μl of peroxide substrate ABTS (Boehringer Mannheim) was added. Using a microtiter plate reader, the absorbance of the samples was determined at 405 nm with reference wavelength at 490 nm. The values were correlated to the amount of LPS bound and SSCrFCES present. Quantitation of SSCrFCES was achieved from a standard curve derived by immobilizing known amount of purified SSCrFCES onto a Maxisorp plate.

[2] = biological target: T2, rFCEE (truncated C. rotundicauda Factor C, CrFC21EE, amino acids 1-766, from P. pastoris) (Carcinoscorpius rotundicauda, UniProt Q26422); assay: Modified Western blot of LPS/lipid A; format: binding; conditions: compared with rFC
T2 construct: Pichia pastoris, Biomax-50 enriched
T2 sequence (Q26422 1-766): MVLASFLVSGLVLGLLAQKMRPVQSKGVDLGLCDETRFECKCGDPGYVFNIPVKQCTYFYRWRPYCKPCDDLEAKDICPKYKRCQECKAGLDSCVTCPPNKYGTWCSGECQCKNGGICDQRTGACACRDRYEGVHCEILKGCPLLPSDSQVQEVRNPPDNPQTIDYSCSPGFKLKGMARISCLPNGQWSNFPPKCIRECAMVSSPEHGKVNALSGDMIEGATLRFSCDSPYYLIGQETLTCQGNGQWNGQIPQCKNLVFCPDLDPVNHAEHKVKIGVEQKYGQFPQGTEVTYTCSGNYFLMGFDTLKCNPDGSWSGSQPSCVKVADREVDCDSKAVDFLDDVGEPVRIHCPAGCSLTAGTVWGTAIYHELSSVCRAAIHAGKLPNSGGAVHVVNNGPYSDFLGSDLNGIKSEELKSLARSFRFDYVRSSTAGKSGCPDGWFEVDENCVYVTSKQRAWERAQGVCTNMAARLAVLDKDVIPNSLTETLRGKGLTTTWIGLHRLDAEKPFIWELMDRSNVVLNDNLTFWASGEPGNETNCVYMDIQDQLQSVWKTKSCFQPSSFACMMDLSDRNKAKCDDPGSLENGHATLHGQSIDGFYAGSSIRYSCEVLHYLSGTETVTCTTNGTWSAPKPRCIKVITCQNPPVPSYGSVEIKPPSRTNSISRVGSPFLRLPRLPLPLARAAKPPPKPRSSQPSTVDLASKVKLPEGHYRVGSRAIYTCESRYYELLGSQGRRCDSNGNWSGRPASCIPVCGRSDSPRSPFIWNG
Experimental: LPS from E. coli 055:B5 (Sigma) was reconstituted to 2 μg/μl, and diphosphoryl lipid A from E. coli K12, D31m4 LPS (List Biologicals, Inc., USA) was made up to 1 μg/μl. The LPS-binding assay was based on modifications of earlier described protocols (45,61). Briefly, 10 μg aliquots of LPS/lipid A were electrophoresed on a denaturing 15% SDS-polyacrylamide gel and electroblotted onto Immobilon™ PVDF membrane. The membrane was cut into strips and each LPS/lipid A strip was subsequently incubated with 300 μg of proteins containing rFC. Detection of rFC binding to lipid A was accomplished by incubation with anti-Factor C antibody followed by alkaline phosphatase-conjugated secondary goat anti-rabbit antibody (Dako) and BCIP/NBT colorimetric substrate (Moss, Inc., USA).

[3] = biological target: T1, SSCrFCES (LPS-binding domain of C. rotundicauda Factor C, rFCES amino acids 29-330, numbered as in SEQ ID NO: 4); conditions: rFCES produced in Drosophila cells, 8 ng/μl; reference 77; cited from earlier work

## lipid A
[1]
  Hill's coefficient: 2.2
  molar ratio of bound SSCrFCES to immobilized lipid A at saturation: 0.37
[1]; at saturation
  stoichiometry, lipid A molecules per SSCrFCES: ~3
[2]
  binding to lipid A moiety of LPS: less strongly
[3]
  saturation of immobilized lipid A: 92%
